Data reported in ChEMBL document CHEMBL1201862, “PubChem BioAssay data set” (2004).
Calls of active or inactive are those of the source. Rule as the data show it: actives have a measured IC50 and inactives only a lower limit.

Target: Envelope glycoprotein gp160 (Human immunodeficiency virus 1, UniProt Q6QLK5)
Assay: cell-free HIV fusion peptide-binding blockers – biochemical, uHTS, fluorescence dequenching, […] (AID 1986)

Sequence of Envelope glycoprotein gp160 (Q6QLK5 whole entry, the tested form may be a part): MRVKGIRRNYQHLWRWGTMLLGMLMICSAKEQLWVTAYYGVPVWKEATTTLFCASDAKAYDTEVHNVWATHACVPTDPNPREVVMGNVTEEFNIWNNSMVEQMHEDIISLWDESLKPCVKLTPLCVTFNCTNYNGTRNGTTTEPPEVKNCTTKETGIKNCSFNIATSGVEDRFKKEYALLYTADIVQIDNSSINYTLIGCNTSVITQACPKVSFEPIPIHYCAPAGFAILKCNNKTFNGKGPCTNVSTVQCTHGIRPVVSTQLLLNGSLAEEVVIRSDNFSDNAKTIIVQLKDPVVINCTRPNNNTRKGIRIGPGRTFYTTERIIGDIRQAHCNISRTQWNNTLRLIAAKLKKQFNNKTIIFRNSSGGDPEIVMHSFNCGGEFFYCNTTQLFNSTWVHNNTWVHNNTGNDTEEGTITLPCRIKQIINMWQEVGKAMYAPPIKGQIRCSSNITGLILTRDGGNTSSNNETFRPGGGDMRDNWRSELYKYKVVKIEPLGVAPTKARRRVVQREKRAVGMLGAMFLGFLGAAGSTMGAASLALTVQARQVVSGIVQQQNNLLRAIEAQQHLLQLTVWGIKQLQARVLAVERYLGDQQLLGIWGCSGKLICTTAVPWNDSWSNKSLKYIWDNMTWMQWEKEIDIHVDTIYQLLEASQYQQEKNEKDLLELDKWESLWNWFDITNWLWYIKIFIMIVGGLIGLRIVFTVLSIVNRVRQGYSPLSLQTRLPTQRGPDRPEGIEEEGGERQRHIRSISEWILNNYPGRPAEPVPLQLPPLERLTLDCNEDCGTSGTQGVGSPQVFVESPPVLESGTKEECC

**Q.** CCCOc1ccc(C(=O)NNC(=S)NC(=O)c2cc(-c3ccc(Cl)cc3)nc3ccccc23)cc1 was tested. Which IC50 did it give?
**A.** 19.9 µM (active)

**Q.** For O=C1/C(=C2\C(=O)N(Cc3ccc(F)cc3)c3ccccc32)SC(=S)N1CCS(=O)(=O)O, which IC50 is on record?
**A.** 15 µM (active)

**Q.** For CCOc1cc(/C=N/NC2=NC(=O)C(CC(=O)O)S2)ccc1OCc1ccc(Cl)cc1 (stereo not drawn), which IC50 is on record?
**A.** 24.6 µM (active)
